From patent US20240408087A1, “TRPC6 INHIBITORY COMPOUNDS FOR TREATING SEPSIS” (Boehringer Ingelheim International GmbH, priority 2021, published 2024)

Key:
mouse CLP model [1] = assay: Acute model of CLP: vascular hyper-permeability (Evans blue extravasation); assay type: in vivo
Experimental: Cecal ligation puncture (CLP) is a model of polymicrobial sepsis which consists of extruding fecal content in the abdominal cavity of the animals under anesthesia.
(§1) Two models were performed: • Acute model of CLP lasting 24 h to measure vascular hyper-permeability in lung, liver, kidney and heart tissue. The vascular hyper-permeability was followed by the extravasation of Evans blue injected intravenously and diffused and accumulated into the tissue. The vascular hyper-permeability was expressed as μg of Evans blue in 100 mg of dry tissue. • Chronic model of CLP lasting 8 days. CLP is performed on day 0 and the survival rate is followed for 8 consecutive days.
(§2) Mice were anesthetized with ketamine (80 mg kg^−1, i.p.) and xylazine (10 mg kg^−1, i.p.). A 1-1.5 cm abdominal midline incision was made, and the caecum was located and tightly ligated at half the distance between distal pole and the base of the caecum with 4-0 silk suture (mild grade). The caecum was punctured through-and-through once with a 21-gauge needle after medium ligation. A small amount of stool was extruded to ensure that the wounds were patent. Then the cecum was replaced in its original position within the abdomen, which was closed with sutures in layers. For negative control animals, a sham surgery was performed: sham-operated animals underwent identical laparotomy but without cecal ligation or puncture. The animals were resuscitated immediately after surgery with 1 mL subcutaneous normal saline and returned to their cages. Experiment was terminated at 24 hrs after CLP.
10 mice were included in each group.
Evans blue dye (0.1 mL at 40 mg/kg) was injected through each tail vein 30 minutes before euthanasia at 24 hours after CLP. Lung, kidney, liver and heart tissues are collected, and Evans blue was extracted in Formamide. The concentration of the Evans blue dye was calculated from a standard curve and expressed as μg/100 mg lung dry tissue. The data were analyzed by using commercially available software (Prism, version 8.3.0; GraphPad Software Inc., San Diego, CA). Different groups were compared with the one-way variance analysis (ANOVA) followed by the Dunnett test (e.g CLP group compared to treated groups). All data were expressed as a mean±SEM. The limit of the significance was taken as p values less than 0.05 (p<0.05).

mouse CLP model [2] = assay: Chronic model of CLP: survival rate; assay type: in vivo
Experimental: as §1
as §2, with “On day 0, mice” for “Mice”, “cages.” for “cages. Experiment was terminated at 24 hrs after CLP.”
Compound 2 of WO 2019/161010 or its vehicle (0.5% natrosol 0.010% Tween 80) was given orally (5 ml/kg) at 30 mg/kg 2 h after CLP and once daily from day 1 to day 6. Adrecizumab, anti-adrenomedullin antibody, was given at 4 mg/kg i.v. only once, 1 h before CLP. 10 mice were included in each group.
In a second experiment, Compound 17 or its vehicle (0.5% natrosol 0.010% Tween 80) was given orally (5 ml/kg). Compound 17 was given at 10 mg/kg in two groups. In the first group, Compound 17 was given at 2 h after CLP and twice daily from day 1 to day 6. In the second group, Compound 17 was given at 24 h after CLP and twice daily from day 2 to day 6. 10 mice were included in each group.

TRPC6 = molecular target: T1, TRPC6 (Homo sapiens, UniProt Q9Y210); assay: in vitro Patch Clamp; assay type: cell-based
T1 sequence (Q9Y210 1-931): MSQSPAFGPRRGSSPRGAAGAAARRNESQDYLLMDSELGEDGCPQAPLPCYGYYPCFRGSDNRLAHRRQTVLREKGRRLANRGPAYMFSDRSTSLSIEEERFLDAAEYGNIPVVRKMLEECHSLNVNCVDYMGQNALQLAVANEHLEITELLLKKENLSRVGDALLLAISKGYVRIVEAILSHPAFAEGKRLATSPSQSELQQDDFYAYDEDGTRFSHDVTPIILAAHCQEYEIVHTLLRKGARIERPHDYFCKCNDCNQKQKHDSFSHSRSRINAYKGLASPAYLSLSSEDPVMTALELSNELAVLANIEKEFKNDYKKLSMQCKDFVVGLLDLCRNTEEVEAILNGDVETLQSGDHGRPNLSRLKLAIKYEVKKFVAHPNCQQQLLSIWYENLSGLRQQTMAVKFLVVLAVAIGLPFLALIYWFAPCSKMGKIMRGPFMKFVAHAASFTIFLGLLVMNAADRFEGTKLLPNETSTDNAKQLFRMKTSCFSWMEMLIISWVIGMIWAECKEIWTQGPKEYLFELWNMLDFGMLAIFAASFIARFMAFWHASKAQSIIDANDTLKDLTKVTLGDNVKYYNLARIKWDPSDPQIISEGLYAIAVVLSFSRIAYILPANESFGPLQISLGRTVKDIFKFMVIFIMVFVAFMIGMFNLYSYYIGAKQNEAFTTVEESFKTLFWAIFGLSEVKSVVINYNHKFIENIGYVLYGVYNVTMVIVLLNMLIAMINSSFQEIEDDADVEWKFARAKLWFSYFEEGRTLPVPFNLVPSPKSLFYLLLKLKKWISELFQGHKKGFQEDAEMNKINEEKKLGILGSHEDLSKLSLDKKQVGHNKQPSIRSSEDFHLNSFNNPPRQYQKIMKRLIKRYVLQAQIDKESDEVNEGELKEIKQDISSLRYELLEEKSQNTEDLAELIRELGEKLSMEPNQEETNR

[3] = tested on: LPS aerosol induced lung edema; assay: LPS-induced vascular leakage in a mouse model (BALF total protein); assay type: in vivo; conditions: 4 h after LPS, average of two experiments
Experimental: Mice are placed in a chamber and exposed to Lipopolysaccharide (LPS, known as endotoxin and found in outer membrane of Gram-negative bacteria such as Escherichia Coli) aerosol (0.8 mg/ml) for 30 min (or Phosphate-Buffered Saline, PBS as vehicle). The TRPC6 inhibitor compound 17 is given orally 12 h and 2 h before LPS challenge. The mice are euthanized 4 h after the end of the LPS aerosol exposure. Blood is collected for plasma exposure of the compound and the lungs are flushed with 0.8 ml PBS. The broncho-alveolar-lavage is centrifuged at 500 revolutions/min for 10 min and the supernatant is collected for the measurement of total protein according to Lowry measurement by absorbance at 660 nm. The mouse LPS experiment is repeated twice, and the data of each experiment are represented in FIG. 3.1 for the first experiment and FIG. 3.2 for the second experiment. FIG. 3.3 represents the average of the two experiments expressed in percent of the LPS group.
LPS aerosol induced lung edema is characterized by a significant accumulation of Broncho-Alveolar-Lavage protein (BALF protein). […]
FIG. 3.1 and FIG. 3.2 show the amount and FIG. 3.3 the percent of total protein in BALF (Broncho Alveolar Lavage Fluid) after LPS (LipoPolySaccharide) treatment without or after pretreatment with (+) compound 17 as evaluated along the following tabular scheme

[4] = Example 1, prophylactic mode, 30 mg/kg orally 2 h before and 8 h after CLP
[5] = Example 1, therapeutic mode, 30 mg/kg orally 2 h and 8 h after CLP
[6] = Example 2, 30 mg/kg orally, therapeutic mode 2 and 8 h after CLP
[7] = Example 2, 10 mg/kg orally, therapeutic mode 2 and 8 h after CLP

For `Nc1ccc(C2CCN(C(=O)c3ccc(Oc4ccc(C(F)(F)F)cc4)cc3)CC2)nn1` [Compound 2 of WO 2019/161010], the “inhibition of Evans blue concentration in heart” value (mouse CLP model [1]; Example 1, heart, therapeutic mode, 30 mg/kg orally 2 h and 8 h after CLP) was 94%, the “inhibition of Evans blue concentration in kidney” value (mouse CLP model [1]; [4]) was 84% and the “inhibition of Evans blue concentration in kidney” value (mouse CLP model [1]; [5]) was 98%. The “inhibition of Evans blue concentration in liver” value (mouse CLP model [1]; [4]) was 71%, the “inhibition of Evans blue concentration in liver” value (mouse CLP model [1]; [5]) was 88% and the “inhibition of Evans blue concentration in lung” value (from here on “inhibition … in lung”) (mouse CLP model [1]; Example 1, lung, prophylactic mode, 30 mg/kg orally 2 h before and 8 h after CLP, 24 h after CLP) was 87%. The “inhibition … in lung” value (mouse CLP model [1]; Example 1, lung, therapeutic mode, 10 mg/kg orally 2 h and 8 h after CLP, 24 h after CLP) was 87%, the “inhibition … in lung” value (mouse CLP model [1]; Example 1, lung, therapeutic mode, 30 mg/kg orally 2 h and 8 h after CLP, 24 h after CLP) was 100% and the “reduction of Evans blue concentration in heart” value (“reduction … in heart” below) (mouse CLP model [1]; Example 2, heart, 30 mg/kg orally, therapeutic mode 2 and 8 h after CLP) was 100%. For the same compound, the “reduction of Evans blue concentration in kidney” value (mouse CLP model [1]; [6]) was 90%, the “reduction of Evans blue concentration in liver” value (mouse CLP model [1]; [6]) was 58% and the “reduction of Evans blue concentration in lung tissue” value (mouse CLP model [1]; Example 2, lung, 30 mg/kg orally, therapeutic mode 2 and 8 h after CLP) was 94%. The “survival rate at day 8” value (mouse CLP model [2]; first experiment, 30 mg/kg orally 2 h after CLP and once daily from day 1 to day 6) was 50% and the “survival rate compared with adrecizumab” value (mouse CLP model [2]; first experiment, day 8) was “significantly superior to adrecizumab survival rate”.
`COc1cc(C(=O)N2CCC(c3ccc(N)nn3)CC2)ncc1Oc1ccc(F)cc1` [Compound 17, [4-(6-Amino-pyridazin-3-yl)-piperidin-1-yl]-[5-(4-fluoro-phenoxy)-4-methoxy-pyridin-2-yl]-methanone] was tested, and the IC50 (TRPC6) was 19 nM, the IC90 (TRPC6) was 104 nM and the “in vitro Patch Clamp IC75” value (TRPC6) was 48 nM. The “reduction of BALF protein concentration” value ([3]; 3 mg/kg p.o. 12 h and 2 h before LPS aerosol) was 56%, the “reduction of BALF protein concentration” value ([3]; 10 mg/kg p.o. 12 h and 2 h before LPS aerosol) was 62% and the “reduction … in heart” value (mouse CLP model [1]; Example 2, heart, 3 mg/kg orally, therapeutic mode 2 and 8 h after CLP) was 100%. The “reduction … in heart” value (mouse CLP model [1]; Example 2, heart, 10 mg/kg orally, therapeutic mode 2 and 8 h after CLP) was 120%, the “reduction of Evans blue concentration in kidney” value (mouse CLP model [1]; [7]) was 95% and the “reduction of Evans blue concentration in liver” value (mouse CLP model [1]; [7]) was 48%. For the same compound, the “inhibition … in lung” value (mouse CLP model [1]; Example 2, lung, 1 mg/kg orally, therapeutic mode 2 and 8 h after CLP) was 65%, the “inhibition … in lung” value (mouse CLP model [1]; Example 2, lung, 3 mg/kg orally, therapeutic mode 2 and 8 h after CLP) was 90% and the “inhibition … in lung” value (mouse CLP model [1]; Example 2, lung, 10 mg/kg orally, therapeutic mode 2 and 8 h after CLP) was 100%. For the same compound, the vascular leakage (mouse CLP model [1]; summary of FIGS. 2.1 to 2.4 (CLP) and FIGS. 3.1 to 3.3 (LPS)) was “significantly reduces vascular leakage”, the “survival rate at day 8” value (mouse CLP model [2]; second experiment, 10 mg/kg orally at 2 h after CLP and twice daily from day 1 to day 6) was 60% and the “survival rate at day 8” value (mouse CLP model [2]; second experiment, 10 mg/kg orally at 24 h after CLP and twice daily from day 2 to day 6) was 50%.
“Adrecizumab: anti-adrenomedullin antibody” was tested, and the “survival rate at day 8” value (mouse CLP model [2]; first experiment, 4 mg/kg i.v. only once, 1 h before CLP) was 30%.
